# Assay results taken from patent publication US20190038711A1, “Medicament For Treating Pulmonary Tuberculosis” (Shandong Zhonghai Pharmaceutical CO. LTD, priority 2016, published 2019).
# System: airway hyperresponsiveness
# Experiment: Experiment on airway hyperresponsiveness (late-phase airway response, APTI)
# Type: in vivo
# Conditions: sensitized mice, acetylcholine 50 μg/kg i.v.; medicament 1 g three times a day intragastric for 17 days; dexamethasone 0.5 ml/kg i.p. daily
# Experimental: According to the Above Embodiments 13-18, an Experiment on Airway Hyperresponsiveness was Conducted, with an Experimental Method and Effects being Shown Below:
# (1) mice for the experiment: the male mice for this experiment were 6 weeks old;
# (2) dose: the dose for each mouse was 3 g/day, 3 times a day;
# (3) antigen sensitization, allergy attack and treatment: 200 μg of conalbumin (CA) and 2 mg of dinitrobenzene (DNP)-bound albumin were dissolved in 0.3 ml of buffer solution PBS and then […] injected into mice for sensitization twice at an interval of one week. The mice were anesthetized 7 days later after the second sensitization, and were intratracheally provided with 0.05 ml of buffer solution PBS containing 100 μg of conalbumin (CA) to induce an allergy attack. On the 20th day and the 30th day, a further allergy attack was induced by the same method at twice dose. The mice having an allergy attack were divided into 9 groups 24 hours later after the first allergy attack. […]
# (4) measurement of late-phase airway response: on the third day after the last allergy attack, the mice of the above 8 groups were intravenously injected with acetylcholine, and then the airway pressure changes of these mice and those of group 9 were all measured to reflect airway responses. […]
smiles,measurement,value
C[C@@H]1C[C@H]2[C@@H]3CCC4=CC(=O)C=C[C@]4(C)[C@@]3(F)[C@@H](O)C[C@]2(C)[C@@]1(O)C(=O)CO [dexamethasone],APTI (airway pressure-time index),565 ± 31 centimeter water column per second
